Results taken from patent US20220127297A1, “Novel Antibacterial 3"-Derivatives Of 4,6-Disubstituted 2,5-Dideoxystreptamine Aminoglycoside Antibiotics” (AGILeBiotics B.V., priority 2018, published 2022).
Converted amounts (≈) assume the structure as drawn.

What was measured:
[1] = tested on: E. coli ATCC25922 strain; assay: MIC 50, broth micro-dilution, wild-type Escherichia coli; assay type: cell-based; settings: Escherichia coli, ATCC25922, 18 h, MH2, 18 h
Source text: (§1) 3.1 Against E. coli Strains
(§2) Tested reference compounds. Amikacin sulfate (Cat. No. 01693, Chem-Impex), Gentamicin sulfate (Cat. No. G4918, Sigma Aldrich).
(§3) Microbial strains. E. coli ATCC 25922, E. coli ATCC 25922/pET-9b(+), E. coli ATCC 25922/pAT21-1, E. coli ATCC 25922/pBluescript::AAC(6′)-Ie/APH(2″)-Ia, E. coli ATCC 25922/pBlue_lpp_aacC3_rrnC, E. coli ATCC 25922/pSET152.
(§4) Culture media and equipment. BBL™ Mueller Hinton Broth 2 (Lot. BCBW1143, Cat. No. 70192, Sigma); Kanamycin A (Cat. No. A1493, AppliChem); 96-well deep well plate, 1 mL (Cat. No. 0030506.200, Eppendorf); Plate lids (Cat. No. 0030131.525, Eppendorf); 96-well plate, F-bottom (Cat. No. 781602, Brand; Incubator, Infors Multitron Pro); Laminar flow (Heraeus KS12); UV/VIS meter (Eppendorf BioPhotometer Plus); Platereader (Tecan Sunrise).
(§5) Compound preparation. Compounds were prepared in MH2 media at a concentration of 5 mM and stored at 4° C. For testing, solutions of 128 μM were prepared in MH2. Out of these working solutions, 400 μL was transferred to wells in the first column of 96-well deep well plates. Each compound was transferred in triplicate. Plates were previously filled with 200 μL of MH2 media in all wells except for the wells in the first column. After compound and antibiotic addition, the compounds were serial two-fold diluted by transferring 200 μL from the first to the second column, then from the second to the third column and so on. Finally, 200 μL was removed from the last column.
(§6) Inoculum preparation. Microorganisms used were all revived from 20% glycerol (40% v/v glycerol in water was diluted with MH2) storage at −80° C. by inoculating them in 5 mL MH2. inoculums of E. coli containing a plasmid were selected for by adding 50 μg/mL KanaA. The Inoculums were grown to an optical density (measured by UV/Vis spectroscopy) of 0.6-0.8 at 600 nm. Out of these suspensions, actual inoculums were prepared by diluting them to an optical density (OD) of 0.1 in MH2 media. From these inoculums, 200 μL was transferred to each well, resulting in a final compound concentration range of 64 μM-31.3 nM. All plates were incubated at 900 rpm and 70% rH for 18 h at 37° C.
MIC determination. After 18 h of growth, 200 μL was transferred to a 96-well F-bottom plate. The optical density was determined by a plate reader at 600 nm, with 10 s shaking before reading. Triplicate measurements were averaged, and a growth curve was plotted in Microsoft Excel. The first column in which the growth reached half the value of maximum growth was determined as the MIC50 value for that particular compound.
MIC50. The MIC50 of a compound was assigned at which the bacterial growth reached half the value of maximum growth.

[2] = tested on: E. coli (APH(3′)IIIa); assay: MIC 50, broth micro-dilution, E. coli expressing APH(3′)IIIa; assay type: cell-based, Escherichia coli; settings: Escherichia coli, ATCC25922, ATCC25922 harboring plasmid encoding APH(3′)IIIa
Description: (§7) Plasmid transformation. Approximately 500 ng of the pET-9b(+) (Cat. No. 69432-3, Merck), pAT21-1 (provided by Prof. Dr. Patrice Courvalin, M.D., Pasteur Institute, France; prepared according to Trieu-Cuot et. al, Mol. Gen. Genet. 198(2), 348 (1985)), pBluescript::AAC(6′)-Ie/APH(2″)-Ia (provided by Prof. Dr. Sergei Vakulenko, M.D., University of Notre Dame, Ind., USA; prepared according to S. B. Vakulenko et. al., J. Biol. Chem. 287 (52), 43262 (2012)), pBlue_lpp_aacC3_rrnC and pSET152 (Cat. No. PVT3395, Life Science Market; prepared according to Bierman et al., Gene 116 (1), 43 (1992)) plasmids, encoding APH(3′)-Ia (SEQ ID NO:2), APH(3′)-IIIa (SEQ ID NO:3), AAC(6′)Ie-APH(2″)-Ia (SEQ ID NO:4), AAC(3)-III (SEQ ID NO:1), and AAC(3)-IV (SEQ ID NO:5) respectively, were individually incubated in a vial of competent cells for 15 min on ice. The cells were subsequently heated to 42° C. for 90 s, and cooled on ice for 1 min. After addition of 900 μL LB, the cells were incubated for 1 h at 37° C. and 200 rpm. Cells were plated on LB-agar supplemented with 50 μg/mL KanaA and incubated for 18 h at 37° C. The next day, a single colony was inoculated in 5 mL LB supplemented with 50 μg/mL and grown for 18 h at 37° C. and 200 rpm. A 200 μL sample of each culture was diluted with 200 μL of 40% v/v glycerol in water, and stored at −80° C. The plasmid was purified from the remaining culture using the Plasmid Miniprep kit. Plasmid DNA was investigated by Eurofins Genomics (Germany) to confirm the identity of the aminoglycoside resistance genes.
as §1, §2, §3, §4, §5, §6
(§8) MIC determination. After 18 h of growth, 200 μL was transferred to a 96-well F-bottom plate. The optical density was determined by a plate reader at 600 nm, with 10 s shaking before reading. Triplicate measurements were averaged, and a growth curve was plotted in Microsoft Excel. […]

[3] = tested on: E. coli (APH(3′)Ia); assay: MIC 50, broth micro-dilution, E. coli expressing APH(3′)Ia; assay type: cell-based, Escherichia coli; settings: Escherichia coli, ATCC25922, ATCC25922 harboring plasmid encoding APH(3′)Ia
Description: as §7, §1, §2, §3, §4, §5, §6, §8

[4] = tested on: E. coli (AAC(6′)Ie-APH(2″)Ia); assay: MIC 50, broth micro-dilution, E. coli expressing AAC(6′)Ie-APH(2″)Ia; assay type: cell-based, Escherichia coli; settings: Escherichia coli, ATCC25922, ATCC25922 harboring plasmid encoding AAC(6′)Ie-APH(2″)Ia
Description: as §7, §1, §2, §3, §4, §5, §6, §8

[5] = tested on: E. coli (AAC(3)III); assay: MIC 50, broth micro-dilution, E. coli expressing AAC(3)III; assay type: cell-based, Escherichia coli; settings: Escherichia coli, ATCC25922, ATCC25922 harboring plasmid encoding AAC(3)III
Source text: Cloning resistant enzymes. An Escherichia coli codon optimized gene encoding AAC(3)-III (GenBank acc.nr. X55652.1; SEQ ID NO:1), including a promoter and terminator sequence, was synthesized by Integrated DNA Technologies, Belgium. The synthesized gene and pBluescript II KS(+) plasmid were digested using the restriction enzymes SacI and SalI, and purified from a 1% TBE-agarose gel using the illustra Gel Band purification kit. The purified linear plasmid and T4 DNA ligase were used to ligate aac(3)-III under control of the constitutive lipoprotein Ipp promoter and ribosomal RNA rrnC terminator, resulting in pBlue_Ipp_aacC3_rrnC.
as §7, §1, §2, §3, §4, §5
Inoculum preparation. Microorganisms used were all revived from 20% glycerol (40% v/v glycerol in water was diluted with MH2) storage at −80° C. by inoculating them in 5 mL MH2. inoculums of E. coli containing a plasmid were selected for by adding 50 μg/mL KanaA.

[6] = tested on: E. coli (AAC(3)IV); assay: MIC 50, broth micro-dilution, E. coli expressing AAC(3)IV; assay type: cell-based, Escherichia coli; settings: Escherichia coli, ATCC25922, ATCC25922 harboring plasmid encoding AAC(3)IV
Description: as §7, §1, §2, §3, §4, §5, §6, §8

**Q.** Which MIC50 [1] does the source give for N=C(NC[C@H]1CCCNC1)NC1[C@@H](O)C(OC2[C@@H](F)[C@H](O[C@H]3OC(CN)[C@@H](O)CC3N)C(N)C[C@H]2NC(=O)[C@@H](O)CCN)O[C@H](CO)[C@H]1O (stereo partly drawn) [ABX5044, Tobra-AHB-F-Gua (S) piperidin-3-yl methyl] here?
**A.** Its MIC50 is 0.5 µM (≈ 0.355 µg/mL).

**Q.** What about the MIC50 [2] of the same compound?
**A.** The MIC50 was 0.5 µM (≈ 0.355 µg/mL).

**Q.** What about the MIC50 [3] of the same compound?
**A.** Its MIC50 is 0.5 to 1 µM (≈ 0.355 to 0.71 µg/mL).

**Q.** What about the MIC50 [4] of the same compound?
**A.** Its MIC50 is 0.5 µM (≈ 0.355 µg/mL).

**Q.** What about the MIC50 [5] of the same compound?
**A.** Its MIC50 is 0.5 µM (≈ 0.355 µg/mL).

**Q.** And the MIC50 [6]?
**A.** The MIC50 was 2 µM (≈ 1.42 µg/mL).
